Each block holds one molecule with its values, some of them ahead of it.
Columns and labels:
[1] = test system: TNFα production in LPS-stimulated human monocytes; assay: Cot Monocyte TNFα Cell Based Assay; details: Homo sapiens, Monocyte, LPS-stimulated human monocytes, TNFα TR-FRET; read-out: EC50 TNF
Outline: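 Cells at 5,000/well were pretreated with compound for 1 h at 37 °C (0.5% DMSO final), then stimulated with 50 pg/ml LPS for 4 h at 37 °C. Supernatant TNFα was measured by two-antibody TR-FRET after overnight room-temperature incubation; values are percent of control between unstimulated and stimulated wells.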

[2] = biological target: T1, human Cot catalytic domain (30-397 amino acids) (Homo sapiens, UniProt P41279); assay: High Throughput Cot Biochemical Assay (KinEASE TR-FRET); details: Cot KinEASE TR-FRET, 400 μM ATP; read-out: IC50 HTRF
T1 construct: Purified recombinant human Cot catalytic domain (30-397 amino acids) was purchased from Cama Biosciences; purchased Cama Biosciences (so in the source)
Outline: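 Reaction of 5 nM recombinant human Cot catalytic domain (aa 30-397) with 1 μM STK3 peptide (XL665-labeled) and 400 μM ATP in 10 mM MOPS pH 7.0, 10 mM MgOAc, 1 mM DTT, 0.5 mg/mL BSA, 0.1% DMSO. Phosphopeptide detected by TR-FRET with europium anti-phospho antibody.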

T1 sequence (P41279 30-397): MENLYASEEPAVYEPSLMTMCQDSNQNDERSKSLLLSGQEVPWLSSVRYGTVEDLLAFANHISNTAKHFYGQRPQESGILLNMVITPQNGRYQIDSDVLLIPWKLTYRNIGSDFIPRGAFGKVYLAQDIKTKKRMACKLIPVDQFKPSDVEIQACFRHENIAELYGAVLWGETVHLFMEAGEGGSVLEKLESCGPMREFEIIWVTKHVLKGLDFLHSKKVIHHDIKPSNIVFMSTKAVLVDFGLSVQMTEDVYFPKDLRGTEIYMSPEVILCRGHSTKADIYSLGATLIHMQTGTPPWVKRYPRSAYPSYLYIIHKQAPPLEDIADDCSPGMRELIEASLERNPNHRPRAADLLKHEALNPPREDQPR

SMILES: CC(C)(C)CNc1c(C#N)cnc2c(Cl)cc(N[C@H](c3cn(C4(C(F)F)CC4)nn3)c3cccc(C#N)c3Cl)cc12 [Example 1075, (S)-8-chloro-6-(((2-chloro-3-cyanophenyl)(1-(1-(difluoromethyl)cyclopropyl)-1H-1,2,3-triazol-4-yl)methyl)amino)-4-(neopentylamino)quinoline-3-carbonitrile]
EC50 [1]: 185 nM
IC50 [2]: 23 nM

SMILES: Cc1cc(F)ccc1[C@H](Nc1cc(Cl)c2ncc(C#N)c(NCC(C)(C)C)c2c1)c1cn(C2(C(F)F)CC2)nn1 [Example 1076, (S)-8-chloro-6-(((1-(1-(difluoromethyl)cyclopropyl)-1H-1,2,3-triazol-4-yl)(4-fluoro-2-methylphenyl)methyl)amino)-4-(neopentylamino)quinoline-3-carbonitrile]
EC50 [1]: 182 nM
IC50 [2]: 37 nM

SMILES: [2H][C@](Nc1cc(C#N)c2ncc(C#N)c(NCC(C)(C)C)c2c1)(c1ccc(F)cc1)c1cn(Cc2c(F)cccc2F)nn1 [Example 1078, (S)-6-(((1-(2,6-difluorobenzyl)-1H-1,2,3-triazol-4-yl)(4-fluorophenyl)methyl-d)amino)-4-(neopentylamino)quinoline-3,8-dicarbonitrile]
EC50 [1]: 175 nM
IC50 [2]: 12 nM

SMILES: CC(C)(C)CNc1c(C#N)cnc2c(C#N)cc(N[C@H](c3cn(C4(C(F)(F)F)CC4)nn3)c3cccc(C#N)c3Cl)cc12 [Example 1079, (S)-6-(((2-chloro-3-cyanophenyl)(1-(1-(trifluoromethyl)cyclopropyl)-1H-1,2,3-triazol-4-yl)methyl)amino)-4-(neopentylamino)quinoline-3,8-dicarbonitrile]
EC50 [1]: 220 nM
IC50 [2]: 19 nM

SMILES: Cc1c([C@H](Nc2cc(C#N)c3ncc(C#N)c(NCC(C)(C)C)c3c2)c2cn(C3(C(F)(F)F)CC3)nn2)cccc1-n1cnnn1 [Example 1081, (S)-6-(((2-methyl-3-(1H-tetrazol-1-yl)phenyl)(1-(1-(trifluoromethyl)cyclopropyl)-1H-1,2,3-triazol-4-yl)methyl)amino)-4-(neopentylamino)quinoline-3,8-dicarbonitrile]
EC50 [1]: 219 nM
IC50 [2]: 3 nM

SMILES: Cc1c([C@H](Nc2cc(C#N)c3ncc(C#N)c(NCC(C)(C)C)c3c2)c2cn(C3(C(F)F)CC3)nn2)cccc1-n1cnnn1 [Example 1082, (S)-6-(((1-(1-(difluoromethyl)cyclopropyl)-1H-1,2,3-triazol-4-yl)(2-methyl-3-(1H-tetrazol-1-yl)phenyl)methyl)amino)-4-(neopentylamino)quinoline-3,8-dicarbonitrile]
EC50 [1]: 262 nM
IC50 [2]: 2 nM

Molecules with a lower EC50 [1], results first:

EC50 [1]: 148 nM
IC50 [2]: 7 nM
SMILES: CC(C)(C)CNc1c(C#N)cnc2c(C#N)cc(N[C@H](c3cn(C4(C(F)F)CC4)nn3)c3cccc(C#N)c3Cl)cc12 [Example 1080, (S)-6-(((2-chloro-3-cyanophenyl)(1-(1-(difluoromethyl)cyclopropyl)-1H-1,2,3-triazol-4-yl)methyl)amino)-4-(neopentylamino)quinoline-3,8-dicarbonitrile]

EC50 [1]: 77 nM
IC50 [2]: 2 nM
SMILES: Cc1c([C@H](Nc2cc(C#N)c3ncc(C#N)c(NCC(C)(C)C)c3c2)c2cn(C3(C(F)F)CC3)nn2)cccc1-n1ccnc1 [Example 1077]

EC50 [1]: 73 nM
IC50 [2]: 7 nM
SMILES: CC(C)(C)CNc1c(C#N)cnc2c(Cl)cc(N[C@@H](c3ccc(C#N)cc3)c3cn(C4CC4)nn3)cc12 [Example 1084, (S)-8-chloro-6-(((4-cyanophenyl)(1-cyclopropyl-1H-1,2,3-triazol-4-yl)methyl)amino)-4-(neopentylamino)quinoline-3-carbonitrile]

EC50 [1]: 63 nM
IC50 [2]: 13 nM
SMILES: Cc1cc(F)ccc1[C@H](Nc1cc(C#N)c2ncc(C#N)c(NCC(C)(C)C)c2c1)c1cn(C2(C(F)F)CC2)nn1 [Example 1083, (S)-6-(((1-(1-(difluoromethyl)cyclopropyl)-1H-1,2,3-triazol-4-yl)(4-fluoro-2-methylphenyl)methyl)amino)-4-(neopentylamino)quinoline-3,8-dicarbonitrile]
